Experimental data from ChEMBL document CHEMBL5505974, “Design, synthesis, and bioactivity evaluation of novel indole-selenide derivatives as P-glycoprotein inhibitors against multi-drug resistance in MCF-7/ADR cell” (Eur J Med Chem, 2024).
Active and inactive are the calls of the source. No cut-off for these calls is given here.

Assays:
MCF7 = experiment: Cytotoxicity against chemo-sensitive human MCF7 cells assessed as inhibition rate at 5 uM incubated for 48 hrs by CCK8 assay relative to control; assay type: functional
NCI/ADR-RES [1] = experiment: Cytotoxicity against doxorubicin resistant human MCF-7/ADR cells assessed as inhibition rate at 5 uM incubated for 48 hrs by CCK8 assay relative to control; assay type: functional
NCI/ADR-RES [2] = experiment: Reversal fold, ratio of doxorubicin IC50 to doxorubicin IC50 in presence of test compound for reversal of P-gp mediated multidrug resistance in doxorubicin resistant human MCF-7/ADR cells incubated for 48 hrs by CCK-8 assay; assay type: functional
[3] = molecular target: T1, ATP-dependent translocase ABCB1 (Homo sapiens, UniProt P08183); experiment: Inhibition of P-gp in doxorubicin resistant human MCF-7/ADR cells assessed as increase in UIC-2 binding to cell at 50 uM incubated for 10 mins by UIC-2 reactivity shift assay; assay type: cell-based
[4] = molecular target: T1, ATP-dependent translocase ABCB1; experiment: Inhibition of P-gp-mediated rhodamine-123 efflux in doxorubicin-resistant human MCF-7/ADR cells assessed as increase in Rh123 accumulation incubated for 4 hrs by fluorescence microscopic analysis; assay type: cell-based; conditions: at 0.1 to 10 µM, dose 0.1-10 µM
NCI/ADR-RES [5] = experiment: Effect on P-gp expression level in doxorubicin-resistant human MCF-7/ADR cells at 0.5 to 5 uM incubated for 48 hrs by Western blot analysis; assay type: functional, cell-based; conditions: dose 0.5-5 µM

T1 sequence (P08183 whole entry): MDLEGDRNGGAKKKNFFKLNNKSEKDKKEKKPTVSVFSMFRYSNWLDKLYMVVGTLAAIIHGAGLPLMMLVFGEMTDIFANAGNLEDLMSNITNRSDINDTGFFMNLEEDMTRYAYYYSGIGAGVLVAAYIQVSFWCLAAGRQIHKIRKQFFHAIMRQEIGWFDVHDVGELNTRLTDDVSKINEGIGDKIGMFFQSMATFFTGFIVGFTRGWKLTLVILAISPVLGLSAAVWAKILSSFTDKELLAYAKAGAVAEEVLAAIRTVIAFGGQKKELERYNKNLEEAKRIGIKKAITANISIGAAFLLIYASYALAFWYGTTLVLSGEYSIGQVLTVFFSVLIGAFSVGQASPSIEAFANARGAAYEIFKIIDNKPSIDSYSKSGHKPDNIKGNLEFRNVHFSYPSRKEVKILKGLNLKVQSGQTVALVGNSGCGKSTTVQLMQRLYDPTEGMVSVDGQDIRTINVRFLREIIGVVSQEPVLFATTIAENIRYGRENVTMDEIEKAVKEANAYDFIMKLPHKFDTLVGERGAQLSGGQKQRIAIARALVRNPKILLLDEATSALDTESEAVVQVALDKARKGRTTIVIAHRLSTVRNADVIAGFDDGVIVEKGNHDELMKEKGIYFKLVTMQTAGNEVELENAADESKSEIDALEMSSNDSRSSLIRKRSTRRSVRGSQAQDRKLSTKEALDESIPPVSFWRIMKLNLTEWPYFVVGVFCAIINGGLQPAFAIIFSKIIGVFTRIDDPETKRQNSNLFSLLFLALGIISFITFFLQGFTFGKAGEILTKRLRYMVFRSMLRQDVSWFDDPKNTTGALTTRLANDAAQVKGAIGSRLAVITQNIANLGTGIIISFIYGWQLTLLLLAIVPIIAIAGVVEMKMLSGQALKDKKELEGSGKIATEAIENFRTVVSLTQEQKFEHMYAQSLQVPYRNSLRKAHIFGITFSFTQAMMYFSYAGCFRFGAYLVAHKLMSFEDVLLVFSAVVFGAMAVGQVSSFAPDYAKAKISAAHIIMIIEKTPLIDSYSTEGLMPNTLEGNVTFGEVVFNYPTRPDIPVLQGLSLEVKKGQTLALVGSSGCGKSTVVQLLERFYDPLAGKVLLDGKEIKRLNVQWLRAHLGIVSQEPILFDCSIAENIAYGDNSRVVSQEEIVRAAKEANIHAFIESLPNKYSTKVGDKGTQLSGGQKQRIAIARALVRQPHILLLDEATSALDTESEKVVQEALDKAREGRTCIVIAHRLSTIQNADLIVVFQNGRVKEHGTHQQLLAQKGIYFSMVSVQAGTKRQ

SMILES	inhibition at 5 µM (MCF7) [%]	inhibition at 5 µM (NCI/ADR-RES [1]) [%]	Ratio IC50 (NCI/ADR-RES [2])	inhibition (INH) [3]	inhibition (INH) [4]	Activity (NCI/ADR-RES [5])
COc1cc2c(cc1OC)CN(C(=O)c1cccc(Sc3c[nH]c4ccc(-c5cnn(C)c5)cc34)c1)CC2	22.7	19.6	46.3			
CNC(=O)c1ccc2[nH]cc([Se]c3cccc(C(=O)NCc4ccccn4)c3)c2c1	15.1	12.8	5.7			
O=C(NCc1ccccn1)c1ccc([Se]c2c[nH]c3ccccc23)cc1	0.2	2.2	1.65			
COc1cc2c(cc1OC)CN(C(=O)c1cccc([Se]c3c[nH]c4ccc(-c5cnn(C)c5)cc34)c1)CC2	21.1	33.7	271.7	Active	Dose-Dependent Effect	inactive
CNC(=O)c1ccc2[nH]cc([Se]c3cccc(C(=O)N4CCc5cc(OC)c(OC)cc5C4)c3)c2c1	1.2	9.4	5.1			
C/C=C/C[C@@H](C)[C@@H](O)[C@H]1C(=O)N[C@@H](CC)C(=O)N(C)CC(=O)N(C)[C@@H](CC(C)C)C(=O)N[C@@H](C(C)C)C(=O)N(C)[C@@H](CC(C)C)C(=O)N[C@@H](C)C(=O)N[C@H](C)C(=O)N(C)[C@@H](CC(C)C)C(=O)N(C)[C@@H](CC(C)C)C(=O)N(C)[C@@H](C(C)C)C(=O)N1C [CYCLOSPORINE]		25.6				
CNC(=O)c1ccc2c([Se]c3cccc(C(=O)NCc4ccccn4)c3)c[nH]c2c1	13.3	10.8	1.2			
COc1cc2c(cc1OC)CN(C(=O)c1ccc([Se]c3c[nH]c4ccccc34)cc1)CC2	1.2	3.2	3.06			
COc1ccc(CCN(C)CCCC(C#N)(c2ccc(OC)c(OC)c2)C(C)C)cc1OC (stereo not drawn)	8.3					
COc1ccc(NC(=O)c2cccc([Se]c3c[nH]c4ccc(-c5cnn(C)c5)cc34)c2)cc1OC	35.6	47	98.4			
COc1cc2c(cc1OC)CN(C(=O)c1cccc([Se]c3c[nH]c4ccccc34)c1)CC2	1.8	11.2	4.12			
COc1ccc(NC(=O)c2cccc([Se]c3c[nH]c4ccccc34)c2)cc1OC	5.2	9.2	5.67			
CN(C)CCNC(=O)c1ccc2[nH]cc([Se]c3cccc(C(=O)NCc4ccccn4)c3)c2c1	15.5	20.9	3.6			
COc1ccc(Cn2cc([Se]c3cccc(C(=O)N4CCc5cc(OC)c(OC)cc5C4)c3)c3ccccc32)cc1	10.5	4.7	25.8			
O=C(NCc1ccccn1)c1cccc([Se]c2c[nH]c3ncccc23)c1	1	3	2			
COc1ccc(NC(=O)c2ccc3[nH]cc([Se]c4cccc(C(=O)Nc5ccc(OC)c(OC)c5)c4)c3c2)cc1	5.2	1.7	5.2			
COc1ccc(NC(=O)c2ccc([Se]c3c[nH]c4ccccc34)cc2)cc1OC	5.5	7.3	3.98			
COc1ccc(CNC(=O)c2cccc([Se]c3c[nH]c4ccccc34)c2)cc1OC	8.6	15.4	2.4			
